Results from patent US7241791B2, “Substituted 4-(indazol-3-yl)phenols” (Wyeth, priority 2002, dated 2007).

Tests used:
human ERα [1] = target: T1, human ERα (Homo sapiens, UniProt P03372); assay: Creatine kinase expression (ER/CK) in Ad5-wt-hERα infected HAECT-1 cells; conditions: for ER/CK % E2: efficacy relative to the maximal stimulation observed with E2
T1 sequence (P03372 1-595): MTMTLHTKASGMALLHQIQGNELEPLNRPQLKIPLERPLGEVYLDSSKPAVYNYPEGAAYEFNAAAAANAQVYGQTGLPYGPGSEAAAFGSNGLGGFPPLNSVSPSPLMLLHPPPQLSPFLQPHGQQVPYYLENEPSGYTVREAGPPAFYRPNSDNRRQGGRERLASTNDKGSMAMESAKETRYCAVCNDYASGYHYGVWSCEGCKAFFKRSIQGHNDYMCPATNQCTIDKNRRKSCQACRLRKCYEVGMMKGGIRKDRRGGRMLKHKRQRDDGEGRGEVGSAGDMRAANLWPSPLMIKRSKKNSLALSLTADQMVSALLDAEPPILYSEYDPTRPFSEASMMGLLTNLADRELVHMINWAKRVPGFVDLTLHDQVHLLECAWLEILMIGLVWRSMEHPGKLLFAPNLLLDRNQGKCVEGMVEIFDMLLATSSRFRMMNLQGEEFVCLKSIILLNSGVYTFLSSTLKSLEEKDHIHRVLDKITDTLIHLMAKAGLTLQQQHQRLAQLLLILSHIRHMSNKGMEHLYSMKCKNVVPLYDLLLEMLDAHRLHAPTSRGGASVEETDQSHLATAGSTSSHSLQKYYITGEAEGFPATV

human ERα [2] = target: T1, human ERα; assay: NF-κB luciferase reporter (ER/NF-KB-luc) in Ad5-wt-hERα infected HAECT-1 cells; conditions: for IC50: ER/NF-KB-luc IC50, Ad5-wt-ER infected HAECT-1 cells, IL-1β; for Emax: HAECT1, read-out: ER/NF-KB-luc % E2, efficacy relative to the maximal inhibition observed with E2

OCCn1nc(-c2ccc(O)cc2O)c2cc(F)ccc21 [Example 192, 4-[5-fluoro-1-(2-hydroxyethyl)-1H-indazol-3-yl]benzene-1,3-diol]
EC50 (human ERα [1]): 608 nM
ER/CK % E2 (human ERα [1]): 51 % E2
IC50 (human ERα [2]): 371 nM
Emax (human ERα [2]): 87%

Oc1ccc(-c2nn(C3CCCC3)c3c(-c4ccc(O)c(O)c4)cccc23)cc1 [Example 240, 4-[1-cyclopentyl-3-(4-hydroxyphenyl)-1H-indazol-7-yl]benzene-1,2-diol]
EC50 (human ERα [1]): 974 nM
ER/CK % E2 (human ERα [1]): 32 % E2
IC50 (human ERα [2]): 158 nM
Emax (human ERα [2]): 54%

Cc1cc(O)ccc1-c1nn(C(C)C)c2c(Cl)cccc12 [Example 77, 4-(7-chloro-1-isopropyl-1H-indazol-3-yl)-3-methylphenol]
EC50 (human ERα [1]): 302 nM
ER/CK % E2 (human ERα [1]): 29 % E2
IC50 (human ERα [2]): 41 nM
Emax (human ERα [2]): 87%

CCCCn1nc(-c2ccc(O)cc2)c2ccc(Cl)cc21 [Example 199, 4-(1-butyl-6-chloro-1H-indazol-3-yl)phenol]
EC50 (human ERα [1]): 1260 nM
ER/CK % E2 (human ERα [1]): 42 % E2
IC50 (human ERα [2]): 487 nM
Emax (human ERα [2]): 100%

Cc1cccc2c(-c3ccc(O)cc3)nn(C(C)C)c12 [Example 39, 4-(1-isopropyl-7-methyl-1H-indazol-3-yl)phenol]
EC50 (human ERα [1]): 57 nM
ER/CK % E2 (human ERα [1]): 46 % E2
IC50 (human ERα [2]): 9 nM
Emax (human ERα [2]): 89%

CCCn1nc(-c2ccc(O)cc2C)c2cccc(Cl)c21 [Example 86, 4-(7-chloro-1-propyl-1H-indazole-3-yl)-3-methylphenol]
EC50 (human ERα [1]): 413 nM
ER/CK % E2 (human ERα [1]): 27 % E2
IC50 (human ERα [2]): 255 nM
Emax (human ERα [2]): 83%

CCCn1nc(-c2ccc(O)cc2)c2cccc(F)c21 [Example 53, 4-(7-fluoro-1-propyl-1H-indazol-3-yl)phenol]
EC50 (human ERα [1]): 184 nM
ER/CK % E2 (human ERα [1]): 31 % E2
IC50 (human ERα [2]): 58 nM
Emax (human ERα [2]): 84%

Cc1cc(O)ccc1-c1nn(C2CCCC2)c2c(-c3ccc(O)c(O)c3)cccc12 [Example 259, 4-[1-cyclopentyl-3-(4-hydroxy-2-methylphenyl)-1H-indazol-7-yl]benzene-1,2-diol]
EC50 (human ERα [1]): 143 nM
ER/CK % E2 (human ERα [1]): 38 % E2
IC50 (human ERα [2]): 18 nM
Emax (human ERα [2]): 73%

OCCn1nc(-c2ccc(O)cc2)c2ccccc21 [Example 158, 4-[1-(2-hydroxyethyl)-1H-indazol-3-yl]phenol]
EC50 (human ERα [1]): 1120 nM
ER/CK % E2 (human ERα [1]): 59 % E2
IC50 (human ERα [2]): 515 nM
Emax (human ERα [2]): 106%

CSc1ccc(-c2cccc3c(-c4ccc(O)cc4C)nn(C4CCCC4)c23)cc1 [Example 257, 4-{1-cyclopentyl-7-[4-(methylthio)phenyl]-1H-indazol-3-yl}-3-methylphenol]
EC50 (human ERα [1]): 490 nM
ER/CK % E2 (human ERα [1]): 27 % E2
IC50 (human ERα [2]): 43 nM
Emax (human ERα [2]): 76%

C=CCn1nc2c(C(F)(F)F)cccc2c1-c1ccc(O)cc1C [Example 72, 4-[2-allyl-7-(trifluoromethyl)-2H-indazol-3-yl]-3-methylphenol]
EC50 (human ERα [1]): 140 nM
ER/CK % E2 (human ERα [1]): 46 % E2
IC50 (human ERα [2]): 7 nM
Emax (human ERα [2]): 85%

C=CCn1nc(-c2ccc(O)cc2)c2cccc(C(F)(F)F)c21 [Example 58, 4-[1-allyl-7-(trifluoromethyl)-1H-indazol-3-yl]phenol]
EC50 (human ERα [1]): 97 nM
ER/CK % E2 (human ERα [1]): 38 % E2
IC50 (human ERα [2]): 20 nM
Emax (human ERα [2]): 100%

CC(C)n1nc(-c2ccc(O)cc2)c2cccc(-c3ccsc3)c21 [Example 226, 4-(1-isopropyl-7-thien-3-yl-1H-indazol-3-yl)phenol]
EC50 (human ERα [1]): 309 nM
ER/CK % E2 (human ERα [1]): 20 % E2
IC50 (human ERα [2]): 32 nM
Emax (human ERα [2]): 87%

Oc1ccc(-c2n[nH]c3ccccc23)cc1O [Example 202, 4-(1H-indazol-3-yl)benzene-1,2-diol]
EC50 (human ERα [1]): 1840 nM
ER/CK % E2 (human ERα [1]): 68 % E2
IC50 (human ERα [2]): 539 nM
Emax (human ERα [2]): 160%

CC(C)n1nc(-c2ccc(O)cc2)c2cccc(-c3ccco3)c21 [Example 267, 4-[7-(2-furyl)-1-isopropyl-1H-indazol-3-yl]phenol]
EC50 (human ERα [1]): 250 nM
ER/CK % E2 (human ERα [1]): 35 % E2
IC50 (human ERα [2]): 53 nM
Emax (human ERα [2]): 64%

CC(C)n1nc(-c2ccc(O)cc2O)c2cccc(F)c21 [Example 87, 4-(7-fluoro-1-isopropyl-1H-indazole-3-yl)benzene-1,3-diol]
EC50 (human ERα [1]): 188 nM
ER/CK % E2 (human ERα [1]): 24 % E2
IC50 (human ERα [2]): 347 nM
Emax (human ERα [2]): 77%

CC(C)n1nc(-c2ccc(O)cc2)c2cccc(-c3cccs3)c21 [Example 227, 4-(1-isopropyl-7-thien-2-yl-1H-indazol-3-yl)phenol]
EC50 (human ERα [1]): 279 nM
ER/CK % E2 (human ERα [1]): 21 % E2
IC50 (human ERα [2]): 56 nM
Emax (human ERα [2]): 70%

Cn1nc(-c2ccc(O)cc2O)c2cc(F)ccc21 [Example 172, 4-(5-fluoro-1-methyl-1H-indazol-3-yl)benzene-1,3-di]
EC50 (human ERα [1]): 1320 nM
ER/CK % E2 (human ERα [1]): 92 % E2
IC50 (human ERα [2]): 349 nM
Emax (human ERα [2]): 95%

CCCn1nc2c(Cl)cccc2c1-c1ccc(O)cc1 [Example 44, 4-[7-chloro-2-propyl-2H-indazol-3-yl]phenol]
EC50 (human ERα [1]): 309 nM
ER/CK % E2 (human ERα [1]): 48 % E2
IC50 (human ERα [2]): 43 nM
Emax (human ERα [2]): 90%

CCCCn1nc(-c2ccc(O)cc2)c2cc(C(F)(F)F)ccc21 [Example 206, 4-[1-butyl-5-(trifluoromethyl)-1H-indazol-3-yl]phenol]
EC50 (human ERα [1]): 902 nM
ER/CK % E2 (human ERα [1]): 27 % E2
IC50 (human ERα [2]): 473 nM
Emax (human ERα [2]): 84%

CC(C)n1nc(-c2ccc(O)cc2)c2cccc(Cl)c21 [Example 45, 4-(7-chloro-1-isopropyl-1H-indazol-3-yl)pheno]
EC50 (human ERα [1]): 121 nM
ER/CK % E2 (human ERα [1]): 43 % E2
IC50 (human ERα [2]): 31 nM
Emax (human ERα [2]): 86%

CCCCCn1nc(-c2ccc(O)cc2O)c2cccc(C(F)(F)F)c21 [Example 73, 4-[1-pentyl-7-(trifluoromethyl)-1H-indazol-3-yl]benzen-1,3-diol]
EC50 (human ERα [1]): 103 nM
ER/CK % E2 (human ERα [1]): 19 % E2
IC50 (human ERα [2]): 94 nM
Emax (human ERα [2]): 76%

Cc1cc(O)ccc1-c1c2cccc(Cl)c2nn1C(C)C [Example 81, 4-(7-chloro-2-isopropyl-2H-indazol-3-yl)-3-methylphenol]
EC50 (human ERα [1]): 308 nM
ER/CK % E2 (human ERα [1]): 62 % E2
IC50 (human ERα [2]): 33 nM
Emax (human ERα [2]): 92%

CC(C)(C)OC(=O)NCC(=O)NCC(=O)Oc1ccc(-c2nn(C3CCCC3)c3c(F)cccc23)cc1 [Example 116, 4-(1-cyclopentyl-7-fluoro-1H-indazol-3-yl)phenyl N-(tert-butoxycarbonyl)glycylglycinate]
EC50 (human ERα [1]): 229 nM
ER/CK % E2 (human ERα [1]): 25 % E2
IC50 (human ERα [2]): 140 nM
Emax (human ERα [2]): 63%

Cn1nc(-c2ccc(O)cc2)c2cccc(F)c21 [Example 200, 4-(7-fluoro-1-methyl-1H-indazol-3-yl)phenol]
EC50 (human ERα [1]): 1480 nM
ER/CK % E2 (human ERα [1]): 58 % E2
IC50 (human ERα [2]): 435 nM
Emax (human ERα [2]): 86%

CC(C)n1nc2c(F)cccc2c1-c1ccc(O)cc1 [Example 56, 4-(7-fluoro-2-isopropyl-2H-indazol-3-yl)phenol]
EC50 (human ERα [1]): 477 nM
ER/CK % E2 (human ERα [1]): 47 % E2
IC50 (human ERα [2]): 14 nM
Emax (human ERα [2]): 96%

Oc1ccc(-c2n[nH]c3ccccc23)cc1 [Example 130, 4-(H-indazol-3-yl)phenol]
EC50 (human ERα [1]): 205 nM
ER/CK % E2 (human ERα [1]): 54 % E2
IC50 (human ERα [2]): 62 nM
Emax (human ERα [2]): 97%

CC(C)n1nc(-c2ccc(O)cc2)c2cccc(-c3ccc(O)c(O)c3)c21 [Example 231, 4-[3-(4-hydroxyphenyl)-1-isopropyl-1H-indazol-7-yl]benzene-1,2-diol]
EC50 (human ERα [1]): 3250 nM
ER/CK % E2 (human ERα [1]): 32 % E2
IC50 (human ERα [2]): 382 nM
Emax (human ERα [2]): 78%

C=CCn1nc2c(Cl)cccc2c1-c1ccc(O)cc1C [Example 78, 4-(2-allyl-7-chloro-2H-indazol-3-yl)-3-methylphenol]
EC50 (human ERα [1]): 2200 nM
ER/CK % E2 (human ERα [1]): 32 % E2
IC50 (human ERα [2]): 590 nM
Emax (human ERα [2]): 90%

C=CCn1nc2c(C(F)(F)F)cccc2c1-c1ccc(O)cc1 [Example 59, 4-[2-allyl-7-(trifluoromethyl)-2H-indazol-3-yl]phenol]
EC50 (human ERα [1]): 133 nM
ER/CK % E2 (human ERα [1]): 36 % E2
IC50 (human ERα [2]): 5 nM
Emax (human ERα [2]): 90%

Cn1nc(-c2ccc(O)cc2)c2cc(F)ccc21 [Example 168, 4-(5-fluoro-1-methyl-1H-indazol-3-yl)phenol]
EC50 (human ERα [1]): 1370 nM
ER/CK % E2 (human ERα [1]): 86 % E2
IC50 (human ERα [2]): 347 nM
Emax (human ERα [2]): 95%

CCCCCn1nc(-c2ccc(O)cc2)c2cccc(C(F)(F)F)c21 [Example 47, 4-[1-pentyl-7-(trifluoromethyl)-1H-indazol-3-yl]phenol]
EC50 (human ERα [1]): 13 nM
ER/CK % E2 (human ERα [1]): 26 % E2
IC50 (human ERα [2]): 97 nM
Emax (human ERα [2]): 94%

OCCn1nc(-c2ccc(O)cc2)c2cccc(F)c21 [Example 188, 4-[7-fluoro-1-(2-hydroxyethyl)-1H-indazol-3-yl]phenol]
EC50 (human ERα [1]): 2450 nM
ER/CK % E2 (human ERα [1]): 31 % E2
IC50 (human ERα [2]): 751 nM
Emax (human ERα [2]): 90%
